What was measured:
[1] = target: T1, recombinant M-MuLV RT/RNase H (Moloney murine leukemia virus, UniProt P03355); experiment: In vitro cleavage of synthetic SFFV PPT-RNA with recombinant M-MuLV RT/RNase H; assay type: biochemical; settings: 5'-end-labelled RNA
T1 construct: The 80 kDa RT/RNase H of M-MuLV is a monomer
From the text: To test, whether ODN M would have similar effects as ODN A, we tested the ability of ODN M to induce cleavage of SFFV RNA in the presence of the recombinant M-MuLV RT/RNase H. We used synthetic 5′-end-labelled RNA, which contains the extended PPT of SFFV and sequences of the viral genome dose to the PPT. […] M-MuLV RT/RNase H induced ODN M-mediated cleavage in a dose-dependent manner (FIG. 8b left). The cleavage induced by the various ODNs leads to degradation of the SFFV PPT-RNA in vitro as shown (FIG. 8b right). […] We concluded that SFFV could serve as model for HIV.
a. 5′-labeled synthetic PPT-RNAs of SFFV (left) and HIV-1 (right) were annealed and cleaved with recombinant M-MuLV or HIV-1 RT/RNase H in the absence or presence of ODN M or ODN A. Cleavage products were analyzed by 8M urea-containing PAGE (6%). Filled arrowheads correspond to the specific RT/RNase H cleavage sites, open arrowheads to additional cleavage sites. RNase T1-digested RNA (RNase T1) served as marker. M indicates the Decade Marker.
b. Titration of recombinant M-MuLV RT/RNase H in the presence of ODN M (50 nM) and 5′-labeled SFFV-PPT-RNA. […] 5′-labeled SFFV-PPT-RNA or control RNA without PPT (Con.) were hybridized with the ODNs and treated with and without MuLV RT/RNase H for in vitro cleavage as indicated and analyzed by 8M urea-containing PAGE (10%, right).

FUGW virus = experiment: Intravaginal treatment of FUGW virus with ODN A, lavage, real-time PCR; assay type: in vivo, C57BL/6 mice; settings: 25 μM ODN, 4 h in the vagina
From the text: In order to analyse the efficiency of the ODN A in the vagina, we used a recombinant retrovirus vector (FUGW) and placed the virus with and without ODN A into the vagina. We recover the virus by lavage and tested the RNA copies by real-time PCR. […] Two different virus concentration were used. The effect can be approved due by adaptation to mucosal condition of the vagina.
The FUGW virus was used, which is a recombinant retrovirus on the basis of HIV but with safety properties. It contains a PPT identical to HIV. The virus was prepared as described (Lois C., Hong E. J., Pease S., Brown E. J. and Baltimore D. (2002). “Germline Transmission and Tissue-Specific Expression of Transgenes Delivered by Lentiviral Vectors”, Science 295, 868-872).
The incubation was followed by a lavage of the vagina. Then lavage samples from the vagina were collected for RNA extraction using QIAamp viral RNA kit. RNA were eluted in 30 μl elution buffer. For reverse transcription, 2 μl RNA were used in 12.5 μl volume and 3 μl of the cDNA were used for real time PCR. Virus reduction is dependent on the ratio of ODN A to virus titer and the reduction is 2 fold for 10^4 IU.

RT/RNaseH [2] = target: T2, RT/RNaseH (Human immunodeficiency virus type 1 group M subtype B, UniProt P04585); settings: high concentrations; previously shown (ref. 12); cited from earlier work
RT/RNaseH [3] = target: T2, RT/RNaseH; experiment: RNase H cleavage assay with synthetic 5'-end-labelled RNA and RT/RNaseH; assay type: biochemical, HIV-1; set-up: the HIV RT/RNase H is a heterodimer of p66 and p51 with and without RNase H; settings: for RT/RNaseH cleavage of RNA2 (contains extended PPT): 10 nM 5'-labelled RNA2
From the text: We used synthetic 5′-end-labelled RNA2, which contains the extended PPT and sequences of the viral genome close to the PPT. […] For the present study we used low concentrations of the ODNs.
(§1) To test whether an ODN-mediated activity would preferentially occur at the PPT, we analysed ODNs targeted to the extended PPT (ODN A) or to a region outside of the PPT (ODN CO and an external antisense oligodeoxynucleotide asEXT) in vitro. We used RNA2, which contains the PPT and the binding sites for ODN A, asEXT and ODN CO. […] Indeed, in the reaction mixture containing both ODN A and asEXT primers, extension products, predominantly synthesized by the RT/RNaseH, started with ODN A and not asEXT (FIG. 2B). […] Thus, the ability of the ODN A to mediate RT/RNaseH-dependent cleavage of the viral RNA is PPT-dependent.
(§2) (A) Cleavage assay. 10 nM of in vitro transcribed 5′-labeled RNA was hybridized with 10, 100 and 1000 nM of ODN A and incubated in the presence of RT/RNaseH. The cleavage products were analyzed by denaturing PAGE as described in Materials and methods. (B). Primer extension assay. Synthetic RNA2 was hybridized with ODN A, antisense primer (asEXT) or both primers combined, and the primer extension was performed as described in Materials and Methods. Elongation products were analysed by 8 M urea/10% PAGE. (C) Cleavage assay. RNA/ODN hybrids, obtained using 10 nM of RNA2 and 10 nM of ODN A, asPPT or ODN CO were incubated with RT/RNaseH and cleavage products were analyzed by denaturing PAGE as described in Materials and methods. Cleavage or extension products are presented schematically to the right of each blot. Cleavage sites are indicated by arrows and labelled cleavage products are shown by black lines. Dots on extension products indicate the incorporated labelled dATPs.

RT/RNaseH [4] = target: T2, RT/RNaseH; experiment: Primer extension assay on synthetic RNA2; assay type: biochemical, HIV-1; set-up: the HIV RT/RNase H is a heterodimer of p66 and p51 with and without RNase H; settings: synthetic RNA2, FIG. 2B
From the text: as §1
as §2, with “Cleavage or extension products are presented schematically to the right of each blot. Cleavage sites are indicated by arrows and labelled cleavage products are shown by black lines. Dots on extension products indicate the incorporated labelled dATPs.” left out

Sequence | cleavage of synthetic SFFV PPT-RNA [1] | reduction of virus RNA copies / titer recovered by lavage (FUGW virus) | reduction of virus RNA copies / titer recovered by lavage (FUGW virus; listed as ODNA A) | virus reduction (FUGW virus; 10^4 IU FUGW-virus) [fold] | concentration at which ODN inhibits the RT/RNaseH activity in vitro (RT/RNaseH [2]) [µM] | RT/RNaseH cleavage of RNA2 (contains extended PPT) (RT/RNaseH [3]; 10 nM ODN) | cleavage of RNA2 compared to control ODN CO (RT/RNaseH [3]; 10 nM RNA2, 10 nM ODN, FIG. 2C) | cleavage of RNA2 compared to single-stranded asPPT (RT/RNaseH [3]; 10 nM RNA2, 10 nM ODN, FIG. 2C) | RT/RNaseH cleavage of RNA2 (contains extended PPT) (RT/RNaseH [3]; 1 μM ODN) | ODN-mediated cleavage of RNA3 (no PPT sequence) (RT/RNaseH [3]; RNA3 without PPT) | primer extension by RT/RNaseH compared to asEXT (RT/RNaseH [4])
TCTTTTTGGGGGGTTTGTTTGTTTTTTCTTTCATTCCCCCCTTTTTCT (chemistry not given here) [ODN M, 22-mer antisense and 22-mer second strand connected by T4, targeted to extended PPT of SFFV] | cleaved |  |  |  |  |  |  |  |  |  | 
TTTTCTTTTGGGGGGTTTGGTTGGGTTTTCCCTTCCAGTCCCCCCTTTTCTTTT (phosphorothioate linkages, further chemistry not given here) [ODN A, 25 mer antisense and 25 mer passenger strand connected by T4, phosphorothioated at each end and in linker, targeted to extended PPT of HIV-1] |  | twofold | factor of two | 2 | ≥ 1 | cleaved | more efficient cleavage | slightly stronger | not | not affected | more efficiently

From patent US20160281089A1, “PREVENTION OF VIRAL INFECTIVITY” (priority 2005, published 2016)
